# Measurements taken from patent publication US11458094B2, “Compositions and methods for treating pulmonary edema or lung inflammation” (priority 2018, dated 2022).
# Key:
# RLE-6TN cells = experiment: RLE-6TN cell survival and recovery under hyperoxia, viable cells by trypan blue exclusion; type: cell-based, rat
# Experimental: FIG. 7. […] The cells were cultured in DMEM/F12 with 10% FBS in 21% O2 and 5% CO2 overnight. […] The viable cells are counted immediately after 72-hour hyperoxia exposure. Cell viability is assessed with trypan blue. The amount of viable cells under specific conditions is presented as a percentage of the cell number from hyperoxia alone. Data are mean±s.d. of four independent experiments with *=P<0.05; **=P<0.01.
# FIG. 8. […] In both (A) and (B), the number of viable cells under specific conditions is presented as a percentage of the cell number related to hyperoxia alone in the same experiment. Data are mean±s.d. of four independent experiments with *=P<0.05; **=P<0.01.
# (§1) FIG. 10. HO-1 Upregulation is required for T3-increased RLE-6TN cell survival in hyperoxia. […] The cells were then collected for Western Blot analysis. (B) The cells were incubated in 21% O2 and 5% CO2 for 72 hours in the present of HO-1 inhibitor Tin Protoporphyrin IX(10^-6M) tinT3 (10^−6M). […] Cell viability is assessed with trypan blue. The number of viable cells under specific conditions is presented as a percentage of the cell number related to hyperoxia alone. Data are mean±s.d. of three independent experiments with *=P<0.05; **=P<0.01.
# FIG. 11. PI3K inhibitor wortmannin blocked T3-induced cell survival in hyperoxia. […] Cell viability is assessed with trypan blue. The number of viable cells under specific conditions is presented as a percentage of the cell number related to hyperoxia alone. Data are mean±s.d. of four independent experiments with *=P<0.05; **=P<0.01.
# At the end of the hyperoxia exposure period, the viable cells were counted by trypan blue dye exclusion.
# [1] = single oral dose of 50 micrograms; cited from earlier work
# [2] = test system: rat lung mucosa and airspaces; experiment: Preliminary studies: intratracheal instillation of liothyronine sodium without pH adjustment; conditions: rats, pH of >10.0 as supplied commercially
# Experimental: (§4) Therefore, the liothyronine sodium and the vehicle were adjusted to neutral pH (6.0-8.0) with sterile 1.0 N HCl (Sigma-Aldrich, St. Louis, Mo.) added aseptically in a biosafety cabinet prior to intratracheal instillation into animals. Using aseptic technique, vials of liothyronine sodium were opened and the entire contents were transferred into sterile 1.5 mL Eppendorf tubes. 80-90 μL of 1.0 N HCl was added to the tube and gently vortexed, and the pH was measured using pH test strips (pH 4.5 to 10.0, Ricca Chemical Co., Arlington, Tex.). Additional HCl was titrated in gradually, as needed, until the pH was in the desired range. […] This solution was stored at 4° C. and used for up to 26 hours after pH adjustment procedure. […] The vehicle was also adjusted to neutral pH (6.0-8.0) with 1.0 N HCl as described above. Using aseptic technique the vehicle was filter sterilized and aliquoted into 21 sterile disposable tubes (5 mL each) and stored at 4° C., and a new tube was opened for each day of use. Normal Saline (0.9% Sodium Chloride Injection USP, B. Braun Medical, Inc., Bethlehem, Pa.), was stored at room temperature. A new package was opened for each day of use.
# [3] = Toxicity phase: intratracheal instillation once daily for five consecutive days (GLP safety study); type: in vivo, Sprague-Dawley rats
# Experimental: Safety studies are described in Example 3, below. In a safety study conducted in compliance with Good Laboratory Practices (GLPs), 0.3 mL (300 μl) was administered to rats weighing 250-350 grams via intratracheal instillation daily for five consecutive days. […] The calculated dose based on lung weight was about 1.57 μg/g wet lung weight.
# This study was conducted using both male and female Sprague-Dawley rats (Envigo, Huntingdon, United Kingdom). Evaluation of the safety of the tracheal route of instillation for liothyronine sodium injection in human clinical trials can be accomplished in this species at appropriate dose levels. Furthermore, responses to thyroid hormone in rats are similar to responses in humans, and the choice of the rat model is based in large part on pharmacologic data from studies of thyroid hormone and associated receptors and physiological responses in rat lung. The University of Minnesota is accredited by the Association for the Assessment and Accreditation of Laboratory Animal Care, International (AAALAC) and registered with the United States Department of Agriculture to conduct research in laboratory animals. Animal studies conformed to NIH guidelines (Guide for the Care and Use of Laboratory Animals. NIH publication No. 86-23. Revised 1985). The protocol was reviewed and approved, as applicable, by the Institutional Animal Care and Use Committee (IACUC) at the University of Minnesota for compliance with regulations prior to study initiation or implementation of amended activities.
# Sixty animals (plus two spare animals/sex/group) were anesthetized and dosed via intratracheal instillation of test or control materials for five consecutive days. On the day after the last dose a terminal blood collection was performed for clinical pathology, after which animals were euthanized and a gross examination of all organs was performed by a board certified veterinary pathologist. Select tissues were collected for histopathology. […] Terminal blood collection was performed at two designated time points per animal up to 24 hours after administration for toxicokinetic evaluation. TK animals were euthanized without further evaluation after the final blood collection. All animals were acclimated for a minimum of seven days prior to the dosing procedure. Animals underwent baseline observations and examinations prior to the initiation of the study, and clinical observations and body weight monitoring were performed throughout the in-life portion of the study. All animals received the same dose volume (0.3 mL) of either test or control materials. This maximum feasible dose (MFD) is constrained by the maximum volume that can be safely and reproducibly (over five days) instilled into lungs of rats weighing 250 g to 350 g, which was determined in preliminary toxicology studies to be 0.3 mL. Actual doses delivered are reported as both μg/kg body weight and μg/gm wet lung weight. The toxicity phase animals were 72-135 days of age at the time of initial dosing. Males weighed between 256.52 g and 307.50 g with a mean±standard deviation of 286.74±11.77 g, and females weighed between 250.46 g and 299.01 g with a mean±standard deviation of 260.64±10.34 g. The TK phase animals were 68-144 days of age at the time of initial dosing. Males weighed between 261.23 g and 316.19 g; females weighed between 250.06 g and 280.32 g.
# Test and control materials were drawn into dosing syringes using aseptic technique. Using a 18G needle, 0.5 mL of air was drawn into a 1 cc syringe followed by 0.3 mL (300 μL) of the solutions. Animals were anesthetized with a combination of ketamine, 40 mg/kg to 200 mg/kg, and xylazine, 1 mg/kg to 7 mg/kg intraperitoneally (IP), to effect. The dose was adjusted daily, as needed, based on individual animal response and recovery. Depth of anesthesia was evaluated by toe pinch, and eye lubricant was applied to the eyes. […]
# [4] = test system: hyperoxia-induced lung injury; experiment: Hyperoxia-induced lung injury in rats: lung histology and MPO immunostaining; type: in vivo, Sprague Dawley rats
# Experimental: FIG. 17. […] Immunostaining was performed with primary: anti-MPO antibody. Black dots represent MPO-positive cells.
# FIG. 18. […] (A) Control: room air; (B) Hyperoxia; (C) Hyperoxia+T3.
# (§2) All experimental protocols for animal treatments were approved by the University of Minnesota Institutional Animal Care and Use Committee. […] The room-air control rats were kept in the University animal housing facility. At the end of hyperoxic exposure, rats were sacrificed by intraperitoneal pentobarbital injection, and the lungs were harvested; the right lobes were allocated for histopathology, measurement of lung tissue myeloperoxidase (MPO) activity and wet-to-dry weight ratio. The left lobes underwent bronchoalveolar lavage (BAL) to determine BAL protein concentrations and differential cell counts.
# Lung tissue was removed and inflation fixed at 20 cm water pressure in 4% paraformaldehyde, paraffin embedded, cut as 5 micron sections and mounted onto poly-L-lysine slides. Sections were deparaffinized in xylene, rehydrated through a graded alcohol series in methanol, and placed in a 98° C. water bath for 30 minutes in citrate buffer (pH 6.0) for antigen retrieval. After quenching with 0.3% hydrogen peroxide in PBS, sections were incubated in normal serum for 30 minutes and for 15 minutes each with Avidin/Biotin Blocking Kit (Vector Laboratories, Inc., Burlingame, Calif.). […]
# [5] = Preliminary dose-finding studies, 3.0 μg neutral pH T3 intravenous vs intratracheal; type: in vivo, rats
# Akt = Akt phosphorylation (Ser473) in RLE-6TN cells under hyperoxia; type: cell-based, rat; conditions: hyperoxia 24 hours, T3 added for 20 minutes, vs room air control and hyperoxia alone
# Experimental: (§3) The cells were lysed in lysis buffer containing 20 mM Tris·HCl (pH 7.5), 150 mM NaCl, 1 mM EDTA, 1 mM EGTA, 1% (vol/vol) Triton X-100 with protease inhibitors (1 mM PMSF, 2 μg/ml pepstatin, and 10 μg/ml each of aprotinin and leupeptin), and phosphatase inhibitors (2.5 mM sodium pyrophosphate, 1 mM β-glycerophosphate, and 1 mM Na3VO4). The lysate was drawn 10 times through a 25-gauge needle on ice for further lysis and then was centrifuged at 13,000 rpm for 15 minutes at 4° C. The supernatant was collected, and the protein concentrations were determined by use of the BCA protein assay kit (Sigma-Aldrich, St. Louis, Mo.). Immediately after this step, equal amounts of protein were subjected to Western blotting analysis.
# HO-1 = experiment: Western blot of HO-1 in RLE-6TN cells under hyperoxia; type: cell-based, rat; conditions: T3 10^−6M
# Experimental: as §1, §3
# Nrf2 = experiment: Western blot of Nrf2 (total cellular and nuclear) in RLE-6TN cells under hyperoxia; type: cell-based, rat; conditions: 24 hours hyperoxia, T3 10^−6 M
# Excerpt: FIG. 9. […] The cells were then collected for Western Blotting analysis. (A) Cellular total protein of Nrf2. (B) Nuclear Nrf2.
# FIG. 12. T3-induced increase in Nrf2 and HO-1 protein via PI3K in hyperoxia. (A) Western Blot and densitometry data for total Nrf2. (B) Western Blot and densitometry data for cytoplasmic Nrf2. (C) Western Blot and densitometry data for nuclear Nrf2.
# Nuclei were extracted with NE-PER nuclear and cytoplasmic extraction reagents kit (Thermo Fisher Scientific, Inc., Waltham, Mass.) following the manufacturer's instruction.
# as §3
# [6] = test system: rat lung mucosa and airspaces; conditions: in vivo
# Experimental: as §4
# [7] = test system: hyperoxia-induced lung injury; experiment: Hyperoxia-induced lung injury in rats: bronchoalveolar lavage protein and cell number; type: in vivo, Sprague Dawley rats; conditions: ip T3
# Excerpt: as §2
# Bronchoalveolar lavage (BAL) of the left lung was performed using a modification of a method previously described (Pace et al., Exp Lung Res 35:380-398, 2009). Briefly, 4 mls of ice-chilled 1× PBS (pH 7.4) were instilled into the left lung, withdrawn, and re-instilled two subsequent times prior to analysis of the lavage fluid. The retrieved BAL fluid was centrifuged at 1500 rpm for 10 minutes to remove cells and debris. The cell pellet was resuspended in 1 ml of 1× PBS (pH 7.4) and total cell number was counted using a hemocytometer. BAL cytospin preparations were stained using the Hema3 stain kit (Thermo Fisher Scientific, Inc., Waltham, Mass.) to identify the nucleated cells. The protein concentration was determined on the supernatants of BAL fluid using a standard BCA assay (Sigma-Aldrich, St. Louis, Mo.).
# [8] = test system: myeloperoxidase (MPO) activity in lung tissue; experiment: Hyperoxia-induced lung injury in rats: lung myeloperoxidase (MPO) assay; type: in vivo, Sprague Dawley rats; conditions: 60 hours hyperoxia, ip T3
# Excerpt: as §2
# To quantify the neutrophil activity in the lung, MPO activity was assayed as previously described (Abraham et al., J Immunol 165:2950-2954, 2000). Lung tissues without prior lavage were frozen in liquid nitrogen, weighed, and stored at −86° C. The lungs were homogenized for 30 seconds in 1.5 ml 20 mM potassium phosphate, pH 7.4, and centrifuged at 4° C. for 30 minutes at 40,000×g. The pellet was resuspended in 1.5 ml 50 mM potassium phosphate, pH 6.0, containing 0.5% hexadecyltrimethylammonium bromide, sonicated for 90 seconds, incubated at 60° C. for two hours, and centrifuged at 14,000 rpm for 30 minutes at 4° C. The supernatant was assayed for peroxidase activity corrected to lung weight. MPO was expressed as activity per gram of lung tissue.
smiles,measurement,setting,value
NC(Cc1ccc(Oc2cc(I)c(O)c(I)c2)c(I)c1)C(=O)O (centres unmarked) [rT3],cell survival under hyperoxia,"RLE-6TN cells; 90% oxygen 72 hours, 10^−6M",no role in cell survival
"C=Cc1c2[n-]c(c1C)/C=c1\[n-]/c(c(C)c1C=C)=C\c1[n-]c(c(CCC(=O)O)c1C)C=c1[n-]/c(c(C)c1CCC(=O)O)=C\2.[Sn+4] [Tin protoporphyrin, Tin Protoporphyrin IX]",AT2 cell number in room air,"RLE-6TN cells; 21% O2 72 hours, 10^-6M",no effect
same,effect on T3-caused increase in cell survival in hyperoxia,"RLE-6TN cells; 90% O2 72 hours, with T3 10^−6M, inhibitor 10^-6M",blocked
"N[C@@H](Cc1cc(I)c(Oc2ccc(O)c(I)c2)c(I)c1)C(=O)O [T3, triiodothyronine]",mean half-life,[1],22.5 h
same,tolerance of intratracheal instillation,[2],do not tolerate
same,body weight at terminal euthanasia vs pre-dose,"[3]; T3 females, toxicity phase",weighed slightly less than their pre-dose weight
same,animals that died after dose administration,"[3]; T3 test group, toxicity phase, judged not test article related",two
same,clinical observations,[3]; during the course of the study,No adverse T3 related clinical observations
same,regain of body weight,"[3]; female rats, toxicity phase, vs males or control groups",did not regain body weight at the same rate
same,hematology parameters,[3]; male rats,no statistical or clinically significant changes
same,treatment-related macroscopic or microscopic findings in end organs,[3]; toxicity phase rats,no macroscopic or microscopic findings
same,organ weight of the lungs,"[3]; toxicity phase rats, five days intratracheal",no differences
same,MPO-positive cells in the lungs vs hyperoxia without T3,"[4]; 95% oxygen 60 hours, T3-injected",fewer MPO-positive cells
same,lung morphology (histopathology),"[4]; 60 hours hyperoxia, systemic T3 supplementation",virtually normal lung morphology
same,"acute effects on physiologic parameters (respiratory rate, O2 saturation, heart rate)",[5]; five days of intratracheal delivery of 3.0 μg neutral pH T3,no acute effects
same,"acute effects on physiologic parameters (respiratory rate, O2 saturation, heart rate)",[5]; single intravenous delivery of 3.0 μg neutral pH T3,no acute effects
same,phosphorylation of Akt at Ser473,Akt,augmented
same,total cellular protein of HO-1,HO-1,significantly enhanced
same,nuclear Nrf-2 protein expression,Nrf2,significantly increased
same,total cellular Nrf-2 protein expression,Nrf2,significantly increased
same,toxicity to rat lung mucosa and airspaces,[6],extremely toxic
same,hyperoxic increase in BALF protein concentration,[7]; 48 hour hyperoxia,attenuated significantly
same,BALF cell numbers vs hyperoxia alone,[7]; 48 hours hyperoxia,significantly reduced
same,hyperoxic increase in BALF protein concentration,[7]; 60 hour hyperoxia,attenuated significantly
same,BALF cell numbers vs hyperoxia alone,[7]; 60 hours hyperoxia,significantly reduced
same,hyperoxia-induced lung MPO activity,[8],significantly reduced
